In US11306092B2, “Amino indole compounds useful as TLR inhibitors” (BRISTOL-MYERS SQUIBB COMPANY, priority 2017, dated 2022) one finds IC50 data, which are given here for twelve molecules.

SMILES strings stand for the structures. pIC50: −log10 of the molar value.

What all share (assay type): cell-based
For one experiment, the target named is T1, human TLR7 (Homo sapiens, UniProt Q9NYK1).
T1 construct: host or cells: HEK-Blue cells
T1 sequence (Q9NYK1 27-1049): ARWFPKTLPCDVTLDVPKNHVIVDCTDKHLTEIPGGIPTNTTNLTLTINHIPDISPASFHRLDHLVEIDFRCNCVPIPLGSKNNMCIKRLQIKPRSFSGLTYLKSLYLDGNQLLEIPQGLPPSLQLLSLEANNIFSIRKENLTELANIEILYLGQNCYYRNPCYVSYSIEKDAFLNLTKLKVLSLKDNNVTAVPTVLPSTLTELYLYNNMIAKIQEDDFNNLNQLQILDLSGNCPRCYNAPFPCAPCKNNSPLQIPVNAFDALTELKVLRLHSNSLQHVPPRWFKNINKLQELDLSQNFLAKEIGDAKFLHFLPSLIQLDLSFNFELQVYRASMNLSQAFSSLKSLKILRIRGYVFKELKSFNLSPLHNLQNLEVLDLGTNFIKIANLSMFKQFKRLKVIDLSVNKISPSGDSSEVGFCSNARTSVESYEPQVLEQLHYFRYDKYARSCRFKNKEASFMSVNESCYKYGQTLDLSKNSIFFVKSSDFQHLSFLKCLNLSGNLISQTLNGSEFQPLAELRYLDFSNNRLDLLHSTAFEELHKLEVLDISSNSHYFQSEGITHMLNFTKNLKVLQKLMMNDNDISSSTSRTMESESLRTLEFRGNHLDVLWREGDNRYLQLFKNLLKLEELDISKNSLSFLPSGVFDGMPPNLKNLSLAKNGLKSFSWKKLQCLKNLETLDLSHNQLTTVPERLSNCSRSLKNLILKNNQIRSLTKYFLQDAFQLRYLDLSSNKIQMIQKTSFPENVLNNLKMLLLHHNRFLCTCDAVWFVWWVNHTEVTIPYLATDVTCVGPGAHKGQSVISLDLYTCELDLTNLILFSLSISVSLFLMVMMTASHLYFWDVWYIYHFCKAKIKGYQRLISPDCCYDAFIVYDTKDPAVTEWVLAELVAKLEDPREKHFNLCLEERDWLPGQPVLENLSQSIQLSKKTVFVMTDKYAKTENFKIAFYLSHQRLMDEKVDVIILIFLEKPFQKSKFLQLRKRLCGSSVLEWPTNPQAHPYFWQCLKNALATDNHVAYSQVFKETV
Put plainly: TLR7 inhibition reporter assay (HEK-Blue SEAP reporter). As to conditions: HEK-Blue cells overexpressing human TLR7; gardiquimod 7.5 μM; 22 hour incubation. An outline of the steps:
(§1)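 Compound treatment: 30 min, RT, 0.05 nM–50 μM final. Agonist: TLR7 gardiquimod 7.5 μM; TLR8 R848 15.9 μM; TLR9 ODN2006 5 nM. Incubation 22 h, 37 °C, 5% CO2. Readout SEAP, HEK-Blue Detection.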
Background: In a reporter assay the amount or activity of a reporter protein is the signal.

A further experiment addresses T2, human TLR8 (Homo sapiens, UniProt Q9NR97).
T2 construct: host or cells: HEK-Blue cells
T2 sequence (Q9NR97 27-1041): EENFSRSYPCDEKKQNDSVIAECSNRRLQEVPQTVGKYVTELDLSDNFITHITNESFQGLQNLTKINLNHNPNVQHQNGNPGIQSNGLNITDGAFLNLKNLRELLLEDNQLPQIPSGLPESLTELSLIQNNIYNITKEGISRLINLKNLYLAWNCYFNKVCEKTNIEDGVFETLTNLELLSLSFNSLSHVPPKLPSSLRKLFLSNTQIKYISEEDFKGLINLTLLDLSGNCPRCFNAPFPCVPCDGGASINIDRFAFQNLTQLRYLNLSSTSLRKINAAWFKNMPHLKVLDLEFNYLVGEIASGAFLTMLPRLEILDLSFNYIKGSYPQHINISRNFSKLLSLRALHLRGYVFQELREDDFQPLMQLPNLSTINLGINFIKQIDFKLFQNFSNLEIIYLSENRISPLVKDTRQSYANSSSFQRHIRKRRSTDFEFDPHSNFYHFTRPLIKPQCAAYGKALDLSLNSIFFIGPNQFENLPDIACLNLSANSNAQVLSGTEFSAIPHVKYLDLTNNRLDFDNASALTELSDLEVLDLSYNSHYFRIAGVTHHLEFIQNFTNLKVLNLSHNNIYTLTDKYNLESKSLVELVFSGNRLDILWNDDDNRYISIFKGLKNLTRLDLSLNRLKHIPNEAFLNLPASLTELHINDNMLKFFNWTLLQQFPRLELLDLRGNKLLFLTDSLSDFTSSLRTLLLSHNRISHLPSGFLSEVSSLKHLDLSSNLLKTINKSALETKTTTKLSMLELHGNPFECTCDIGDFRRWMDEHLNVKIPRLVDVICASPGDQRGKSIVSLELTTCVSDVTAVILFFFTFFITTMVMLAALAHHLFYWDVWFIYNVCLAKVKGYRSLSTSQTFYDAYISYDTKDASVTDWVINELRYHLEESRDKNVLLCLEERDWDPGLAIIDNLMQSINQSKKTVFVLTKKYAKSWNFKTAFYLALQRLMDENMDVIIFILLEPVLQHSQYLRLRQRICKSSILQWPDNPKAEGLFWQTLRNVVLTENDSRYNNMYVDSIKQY
Briefly: TLR8 inhibition reporter assay (HEK-Blue SEAP reporter). Particulars: HEK-Blue cells overexpressing human TLR8; R848 15.9 μM; 22 hour incubation. Here is the method: TLR7/8/9 Inhibition Reporter Assays
HEK-Blue™-cells (Invivogen) overexpressing human TLR7, TLR8 or TLR9 receptors were used for screening inhibitors of these receptors using an inducible SEAP (secreted embryonic alkaline phosphatase) reporter gene under the control of the IFN-β minimal promoter fused to five NF-κB and AP-1-binding sites. Briefly, cells are seeded into Greiner 384 well plates (15000 cells per well for TLR7, 20,000 for TLR8 and 25,000 for TLR9) and then treated with test compounds in DMSO to yield a final dose response concentration range of 0.05 nM-50 μM. After a 30 minute compound pre-treatment at room temperature, the cells are then stimulated with a TLR7 ligand (gardiquimod at a final concentration of 7.5 μM), TLR8 ligand (R848 at a final concentration of 15.9 μM) or TLR9 ligand (ODN2006 at a final concentration of 5 nM) to activate NF-κB and AP-1 which induce the production of SEAP. After a 22 hour incubation at 37° C., 5% CO2, SEAP levels are determined with the addition of HEK-Blue™ Detection reagent (Invivogen), a cell culture medium that allows for detection of SEAP, according to manufacturer's specifications. The percent inhibition is determined as the % reduction in the HEK-Blue signal present in wells treated with agonist plus DMSO alone compared to wells treated with a known inhibitor.

Another experiment deals with T3, human TLR9 (Homo sapiens, UniProt Q9NR96).
T3 construct: host or cells: HEK-Blue cells
T3 sequence (Q9NR96 26-1032): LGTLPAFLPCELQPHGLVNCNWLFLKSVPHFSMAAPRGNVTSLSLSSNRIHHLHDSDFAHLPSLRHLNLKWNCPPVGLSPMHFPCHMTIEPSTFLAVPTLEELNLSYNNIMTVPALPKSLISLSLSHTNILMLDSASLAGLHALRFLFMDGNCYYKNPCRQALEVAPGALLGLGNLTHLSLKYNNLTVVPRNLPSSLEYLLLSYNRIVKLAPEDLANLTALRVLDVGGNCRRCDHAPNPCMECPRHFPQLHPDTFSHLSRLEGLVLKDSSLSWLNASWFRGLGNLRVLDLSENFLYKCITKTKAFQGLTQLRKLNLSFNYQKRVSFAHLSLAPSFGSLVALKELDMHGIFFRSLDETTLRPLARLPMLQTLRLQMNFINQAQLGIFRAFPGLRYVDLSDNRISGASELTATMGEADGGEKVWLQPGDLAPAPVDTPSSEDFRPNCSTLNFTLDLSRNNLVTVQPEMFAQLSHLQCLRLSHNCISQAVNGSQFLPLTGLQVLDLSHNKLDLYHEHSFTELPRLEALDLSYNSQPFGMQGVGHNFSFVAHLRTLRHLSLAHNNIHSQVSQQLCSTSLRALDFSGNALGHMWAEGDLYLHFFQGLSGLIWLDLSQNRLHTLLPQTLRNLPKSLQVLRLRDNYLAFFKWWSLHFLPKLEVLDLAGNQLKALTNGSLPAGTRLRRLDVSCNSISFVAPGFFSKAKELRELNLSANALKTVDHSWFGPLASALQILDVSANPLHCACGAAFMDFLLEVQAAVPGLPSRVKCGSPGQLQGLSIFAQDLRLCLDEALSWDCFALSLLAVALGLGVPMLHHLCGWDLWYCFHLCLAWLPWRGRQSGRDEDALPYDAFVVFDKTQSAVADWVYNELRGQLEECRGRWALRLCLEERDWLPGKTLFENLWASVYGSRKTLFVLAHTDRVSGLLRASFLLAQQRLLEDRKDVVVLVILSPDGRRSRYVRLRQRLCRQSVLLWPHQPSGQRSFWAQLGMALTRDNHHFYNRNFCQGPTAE
Put plainly: TLR9 inhibition reporter assay (HEK-Blue SEAP reporter). As to conditions: HEK-Blue cells overexpressing human TLR9; ODN2006 5 nM; 22 hour incubation. An outline of the steps: as §1

Take `COc1ccc(-c2[nH]c3ccc(N4CCC(N5CCN(CC(C)C)CC5)CC4)cc3c2C(C)C)cc1OC` [Example 91, 2-(3,4-dimethoxyphenyl)-5-(4-(4-isobutylpiperazin-1-yl)piperidin-1-yl)-3-isopropyl-1H-indole]: the pIC50 (in general, the IC50 on a negative log10 scale, so that one unit is a factor of ten) at human TLR7 is 6.94; on human TLR8 it was 7.04; at human TLR9, 5.71.
As to `COc1ccc(-c2[nH]c3ccc(N4CCC(NCCCN(C)C)CC4)cc3c2C(C)C)cc1OC` [Example 77, N1-(1-(2-(3,4-dimethoxyphenyl)-3-isopropyl-H-indol-5-yl)piperidin-4-yl)-N3,N3-dimethylpropane-1,3-diamine], the pIC50 is 7.21 at human TLR7, 8.02 against human TLR8 and 5.70 at human TLR9.
For the molecule `COc1ccc(-c2[nH]c3ccc(NC4CCC(N(C)CCN(C)C)CC4)cc3c2C(C)C)cc1OC` (stereo not shown) [Example 35, N1-(2-(3,4-dimethoxyphenyl)-3-isopropyl-1H-indol-5-yl)-N4-(2-(dimethylamino)ethyl)-N4-methylcyclohexane-1,4-diamine], the pIC50 is 6.89 against human TLR7, 6.58 against human TLR8 and 6.22 against human TLR9.
Taken in the same sequence, the figures for `COc1ccc(-c2[nH]c3ccc(N4CCC(C(C)(C)O)CC4)cc3c2C(C)C)cc1OC` [Example 110, 2-(1-(2-(3,4-dimethoxyphenyl)-3-isopropyl-1H-indol-5-yl)piperidin-4-yl)propan-2-ol] were 6.71, 6.48 and 4.53.
On to `COc1ccc(-c2[nH]c3ccc(N4CCC(CCN(C)C)CC4)cc3c2C(C)C)cc1OC` [Example 71, 2-(1-(2-(3,4-dimethoxyphenyl)-3-isopropyl-1H-indol-5-yl)piperidin-4-yl)-N,N-dimethylethan-1-amine], for which the negative logarithm of the IC50 (pIC50) against human TLR8 was < 4.30; against human TLR9 it was 6.22.
On to `COc1ccc(-c2[nH]c3ccc(NC(=O)[C@@H](N)CC(N)=O)cc3c2C(C)C)cc1OC` [Example 18, (S)-2-amino-N1-(2-(3,4-dimethoxyphenyl)-3-isopropyl-1H-indol-5-yl)succinamide], for which the values for the pIC50 against human TLR7 and against human TLR8 were 6.55 and 7.05, respectively.
As for `CCN1CCC(N2CCN(c3ccc4[nH]c(-c5ccc(OC)c(OC)c5)c(C)c4c3)CC2)CC1` [Example 155, 2-(3,4-dimethoxyphenyl)-5-(4-(1-ethylpiperidin-4-yl)piperazin-1-yl)-3-methyl-1H-indole], the results for the pIC50 on human TLR8 and against human TLR9 were < 4.30 and 6.35, respectively.
Turning to `COc1ccc(-c2[nH]c3ccc(NC(=O)[C@H](N)CC(N)=O)cc3c2C(C)C)cc1OC` [Example 19, (R)-2-amino-N1-(2-(3,4-dimethoxyphenyl)-3-isopropyl-1H-indol-5-yl)succinamide], the figures for the pIC50 at human TLR7 and against human TLR8 were 6.36 and 7.01, respectively.
Turning to `CCc1c(-c2ccnc(C)c2)[nH]c2ccc(N3CCC(OC4CCN(C(C)C)CC4)CC3)cc12` [Example 182, 3-ethyl-5-(4-((1-isopropylpiperidin-4-yl)oxy)piperidin-1-yl)-2-(2-methylpyridin-4-yl)-1H-indole], the pIC50 against human TLR8 is 4.32; against human TLR9 it was 6.18.
As to `COc1ccc(-c2[nH]c3ccc(N4CCC(N5CCCN(C)CC5)CC4)cc3c2C(C)C)cc1OC` [Example 123, 2-(3,4-dimethoxyphenyl)-3-isopropyl-5-(4-(4-methyl-1,4-diazepan-1-yl)piperidin-1-yl)-1H-indole], the pIC50 was 6.55 against human TLR7 and 5.77 at human TLR9.
For `CCc1c(-c2ccc(OC)c(OC)c2)[nH]c2ccc(N3CCN(CCNC)CC3)cc12` [Example 140, 2-(4-(2-(3,4-dimethoxyphenyl)-3-ethyl-1H-indol-5-yl)piperazin-1-yl)-N-methylethan-1-amine], the figures for the pIC50 at human TLR7 and against human TLR9 were 6.63 and 5.40, respectively.
The like results for `COc1ccc(-c2[nH]c3ccc(NC4CCC(N5CCN(Cc6ccc(C)cc6)CC5)CC4)cc3c2C(C)C)cc1OC` (stereo not shown) [Example 66, 2-(3,4-dimethoxyphenyl)-3-isopropyl-N-(4-(4-(4-methylbenzyl)piperazin-1-yl)cyclohexyl)-1H-indol-5-amine] were, in that order, 6.16 and 6.23.
